Test results reported in patent US20210100905A1, “APPLICATION OF COMPOUND OR TRADITIONAL CHINESE MEDICINE EXTRACT IN PREPARATION OF NUCLEIC ACID DELIVERY AGENT, AND RELATED PRODUCTS” (INSTITUTE OF BASIC MEDICAL SCIENCES CHINESE ACADEMY OF …, priority 2018, published 2021).
“Also recorded” adds a separate entry of the source.

Columns and labels:
[1] = In vivo delivery of single-stranded sRNA by single lipid, gavage (Example 11); set-up: species or system C57 mice; settings: FIGS. 108, 112-115; oral (gavage), 10 μL lipid, sRNA 1 nmol each, heating method, 12 hours; vs POPC and Lipofectamine RNAiMAX
Description: 1. Experimental animals: C57 mice, male, approximately 6 weeks old.
2. Manufacture of lipid mixture: the prepration was conducted on the basis of a dose of 10 μ1 lipid-1 nmol sRNA per mouse as follows: dissolved 1 nmol of each sRNA in 500 μl DEPC water, added 10 μl of the corresponding lipid, pipette to mix thoroughly, and then naturally cooled down after water bath for 15 min at 90° C., and administered via gavage.
1) Tissue sampling and extraction of RNA: 6 hours after gavage in mice, took 500 μl of blood from the eyeball, added 1.5 ml Trizol Reagent LS to thoroughly mix and lyse, added 3 ml Trizol Reagent (purchased from Invitrogen) to the tissue samples and homogenized until complete lysis. Tissues sampled: live/stomach/small intestine.
2) Reverse transcription of sRNA to cDNA: Reverse Transcription Kit (High-Capacity cDNA Reverse Transcription Kits, Applied Biosystems, cat. no. 4368813), was used to reverse transcribe the total RNA to cDNA, and the reverse system was as follows: template RNA (150 ng/μL) 10 μL, 10× RT buffer, 2.0 μL, 25× dNTP Mix (100 mM) 0.8 μL, random primers 2.0 μL, the Multi Scribe™ reverse Transcriptase 1.0 μL, RNase inhibitor 1.0 μL, nuclease-free H2O 3.2 μL. After a brief centrifugation, the reaction was loaded in a PCR reactor. The reaction conditions were as follows: (1) 25° C., 10 min; (2) 37° C., 120 min; (3) 85° C., 5 min; (4) 4° C., termination of the reaction. After the reaction, 20 μL RNase-free ddH2O was added to make up the final volume to 40 μL.
LightCycler 480 fluorescence quantitative PCR instrumentwas used, and the PCR reaction conditions were: 95° C. , 5 min for pre-denaturation, followed by the PCR amplification cycle: (1) 95° C., 10 s; (2) 55° C., 10 s; (3) 72° C., 20 s; a total of 40 cycles; 40° C. for 10 s in the end to cool down. The forward primer and reverse primer of the amplification reaction were designed and synthesized by Beijing Qing Ke New Industrial Biotechnology Co., Ltd. (U6 F primer: GCGCGTCGTGAAGCGTTC (SEQ ID NO: 23), U6 R primer: GTGCAGGGTCCGAGGT (SEQ ID NO: 24)).
3) The relative expression amount was calculated by the 2-ΔCt method.
5) Treatment group of single lipid and nucleic acid mixture: a mixture of 10 μL of single lipid (No. 41) with single-stranded sRNA mixure solution (PGY-sRNA-23, PGY-sRNA-26 and PGY-sRNA-32, 1 nmol each) was treated by heating method and then given to mice via intragastric administration.
2. 12 hours after intragastric administration, the blood was taken from the eyeball, and various tissues (liver/stomach/small intestine) was sampled. TRIzol was used for full lysis and the RNA was extracted to detect the amount of entry.

[2] = test system: A549 cell (human lung adenocarcinoma cell); test: In vitro delivery of lipid nucleic acid mixture, RT-qPCR of intracellular small RNA; format: cell-based; settings: single lipid prepared by boiling or reverse evaporation method; RNA 100 nM; FIGS. 76, 91, 96, 99, 104, 106, 107
Description: 3.1 NCI-N87 cell (gastric cancer cell), MRC-5 cell (lung fibroblast), A549 cell (lung cancer cell) were cultured to logarithmic growth phase, and then plated to a six-well plate at cell density of 1×10^6/2 mL medium/well; MRC-5 cell was cultured in Eagle's MEM medium (MEM, Gibco); A549 cell was cultured in Ham's F-12 medium (HyClone); NCI-N87 cell was cultured in RPMI-1640 medium (HyClone); followed by incubation overnight at 37° C., and the follow-up experiments were performed after the cells were attached to the walls.
3.3 After co-incubation with the small RNA for 3 hours, the cells were washed 2-3 times with PBS. The cells were harvested with TRIzol lysis buffer, and the total RNA was extracted. The abundance of small RNA that entered cells was detected by RT-qPCR, and the localization of RNA was detected by fluorescence in situ hybridization; protocols of each detection method were as follows:
1) The sRNA was reverse transcribed to cDNA: Reverse Transcription Kit (High-Capacity cDNA Reverse Transcription Kits, Applied Biosystems, cat. No. 4368813) was used to reverse transcribe sRNA into cDNA by stem-loop method, and the reverse transcription system was as follows: RNA template (150 ng/μl) 10 μl, 10×RT buffer, 2.0 μl, 25× dNTP Mix (100 mM) 0.8 μl, U6 RT stem-loop primer 2.0 μl, HJT-sRNA-RT-m7 stem-loop primer 2.0 μl, MultiScribe™ reverse transcriptase 1.0 μl, RNase inhibitor 1.0 μl, nuclease-free H2O 1.2 μl, loaded into a PCR reactor after brief centrifugation, the reaction conditions were as follows: (1) 25° C., 10 min; (2) 37° C., 120 min; (3) 85° C., 5 min; (4) 4° C., termination of the reaction. 20 μl RNase-free ddH2O was added to make up the final volume to 40 μl after the reaction. The stem-loop primer used in the reverse transcription process was synthesized by Beijing Tsingke Biotechnology Co., Ltd.
2) Quantitative PCR amplification reaction: the qPCR reaction system has a total volume of 10 μl, containing: 5 μL 2×SYBR Green Master Mix, 0.5 μl forward primer ([…]), 0.5 μl reverse primer (10 μM), 1 μl cDNA by reverse transcription, 3 RNase-free dH2O. LightCycler 480 fluorescence quantitative PCR instrument was used, and the PCR reaction conditions were: 95° C. for 5 min for pre-denaturation, followed by PCR amplification cycle: (1) 95° C., 10 s; (2) 55° C., 10 s; (3) 72° C. , 20 s; a total of 40 cycles; 40° C. for 10 s in the end to cool down. Both the forward and reverse primers of the amplification reaction were designed and synthesized by Beijing Tsingke Biotechnology Co., Ltd.
3) The relative expression level was calculated by 2-ΔCt method.
100 μl lipid in diethyl ether solution was prepared, and grouped according to the lipid numbers shown in Table 1 (the lipid concentrations are shown in the table below). To the lipid solution was added 20 μl nucleic acid solution (HJT sRNA or siRNA) at the volume ratio of 5:1, and sonicated for after 3 min. The diethyl ether was removed by evaporation at 55° C., and then 100 μl DEPC water was added for hydration to give nucleic acid lipid mixture.
100 μL of the nucleic acid solution (HJT sRNA or siRNA) was added to 2-5 μL of the lipid in chloroform (the concentration was shown in Table 1), mixed, and heated at 80-100° C. for 15-30 min to give nucleic acid lipid mixture.
3.1.1 MRC-5 cell (pulmonary embryonic fibroblast), A549 cell (human lung adenocarcinoma cell), Caco-2 cell (human colon adenocarcinoma cell) (purchased from the Cell Resource Center of the Institute of Basic Medical Sciences, Chinese Academy of Medical Sciences) were cultured to logarithmic growth phase, then plated into 12-well plates at a cell density of 6×10^5/1 mL medium/well; MRC-5 and Caco-2 cells were cultured in Eagle's MEM medium (MEM, Gibco); A549 cells were cultured in Ham's F-12 medium (HyClone); followed by incubation overnight at 37° C., and the follow-up experiments were performed after the cells were attached to the walls. […]

A549 cells = test: Digital PCR (ddPCR) detection of the efficiency of nucleic acid delivery by lipid; format: cell-based, human; settings: boiling or reverse evaporation method; samples after 6 hours (No. 39: reverse evaporation, 6 and 12 hours)
Text: 2.1 Experimental materials: A549 cells were purchased from the Cell Center of the Institute of Basic Medical Sciences, Chinese Academy of Medical Sciences, TRIzol lysis buffer was purchased from Sigma, High capacity cRNA Reverse Transcription Kit was purchased from ABI, USA, and the digital PCR related reagents were purchased from Bio-Rad USA.
(§1) 2.2 Experimental method: the total cellular RNA was collected and extracted by TRIzol lysis buffer according to the above methods, and reverse transcribed to cDNA using High capacity cRNA Reverse Transcription Kit, and the cDNA from different groups was subject to digital PCR reaction. Refering to the QX200 Droplet Reader and QuantaSoft Software manual for the protocols, the results were analyzed using QuantaSoft software.
as §1, with “method:” for “method: the”, “total” for “total cellular”, “method,” for “methods,”, “subjected” for “subject”, “Refer” for “Refering”, “protocols;” for “protocols,”
(§2) 2.2 Experimental method: Total RNA was collected and extracted by TRIzol lysis buffer according to the above method, and reverse transcribed to cDNA using TaqMan™ MicroRNA Reverse Transcription KitHigh, and the cDNA from different groups was subjected to digital PCR reaction. Refer to the QX200 Droplet Reader and QuantaSoft Software manual for the protocols; the results were analyzed using QuantaSoft software.
as §2, with “reversed” for “reverse transcribed”, “High capacity cRNA” for “TaqMan™ MicroRNA”, “Kit,” for “KitHigh,”

Compound | delivery of sRNA single-stranded nucleic acid into mouse blood [1] | delivery of HJT-sRNA-m7 double-stranded RNA into A549 cells (real-time PCR) [2] | delivery of HJT-sRNA-m7 dsRNA into A549 cells (ddPCR) (A549 cells)
CCCCCCCCCCCCCCCC(=O)OCC(COP(=O)(O)OCCN)OC(=O)CCCCCCCCCCCCCCC (stereo not drawn) [No. 71, 1,2-Dipalmitoyl-sn-Glycero-3-Phosphatidyl-ethanolamine] | could effectively deliver sRNA single-stranded nucleic acid into mouse blood via oral administration; also recorded: the delivery effect was better than POPC and Lipofectamine RNAiMAX | – | –
CCCCCC/C=C\CCCCCCCCCC(=O)O[C@H](COC(=O)CCCCCCC/C=C\CCCCCC)COP(=O)(O)OCCN [No. 39, (2-aminoethoxy) [(2R)-3-[(9Z)-hexadec-9-enoyloxy]-2-[(11Z)-octadec-11-enoyloxy]propoxy] phosphinic acid] | – | delivered double-stranded RNA into A549 cells | could effectively deliver HJT-sRNA-m7 dsRNA into A549 cells
